Assay results published in patent US20110230659A1, “CYCLOBUTYL PURINE DERIVATIVE, ANGIOGENESIS PROMOTING AGENT, LUMEN FORMATION PROMOTING AGENT, NEUROCYTE GROWTH PROMOTING AGENT, AND DRUG” (NATIONAL UNIVERSITY CORPORATION KAGAWA UNIVERSITY, priority 2008, published 2011).

What was measured:
[1] = system: Human umbilical vein endothelial cells (HUVEC); experiment: Measurement of cell proliferation (Cell Counting Kit-8); format: cell-based; conditions: examined in the same manner as in Example 1
Method: Sample solutions were prepared by dissolving 2-Cl—C.OXT-A in physiological saline so as to achieve predetermined concentrations (0.5, 1, 5, 10, 50, 100 mmol/l). Then, the sample solutions containing 2-Cl—C.OXT-A at the predetermined concentrations respectively were added to HuMedia-EB2 media (Kurabo) to which 2 v/v % inactivated fetal bovine serum (FBS) had been added so that their concentrations became 10 v/v %. Thus, cell proliferation media were prepared. The final concentrations of 2-Cl—C.OXT-A in the cell proliferation media were 50, 100, 500 μmol/l, 1, 5, and 10 mmol/1.
Human umbilical vein endothelial cells (HUVEC) suspended in a HuMedia-EG2 medium (Kurabo) were inoculated into each of gelatin-coated wells of a 96-well plate at a density of 3×10^3 cells per well, and cultured for 24 hours. 24 hours after the start of the culture, the medium was removed, and 100 μl of the cell proliferation medium was added to each well. The cells were cultured for another 48 hours. After the completion of the culture, a color reaction was caused using a Cell Counting Kit-8 (Dojindo Laboratories). 2 hours after the start of the reaction, the absorbance at 450 nm was measured using a microplate reader. As a control, a HuMedia-EB2 medium (Kurabo) to which 2 v/v % inactivated fetal bovine serum (FBS) had been added was used instead of the cell proliferation medium to carry out the culture, and a color reaction was caused and the absorbance was measured in the same manner as in the above. Then, using the following equation (I), the relative absorbance in the culture using each of the cell proliferation media containing 2-Cl—C.OXT-A at the predetermined concentrations was calculated.

[2] = system: human umbilical vein endothelial cells (HUVEC) and normal human dermal fibroblasts; experiment: Measurement of lumen formation (angiogenesis kit, CD31 immunostaining, lumen area); format: cell-based; conditions: for lumen formation promoting-activity for vascular endothelial cells: examined in the same manner as in Example 1
Method: The measurement of lumen formation was carried out in the following manner using commercially available angiogenesis kits (Kurabo), each including human umbilical vein endothelial cells (HUVEC) and normal human dermal fibroblasts. First, sample solutions were prepared by dissolving 2-Cl—C.OXT-A in physiological saline so as to achieve predetermined concentrations (1, 10, 100, 500 μmol/l, 1, 5, 10, 50 mmol/l). Then, the sample solutions containing 2-Cl—C.OXT-A at the predetermined concentrations respectively were added to media provided in the kits so that their concentrations became 10 v/v %. Thus, lumen formation media were prepared. The final concentrations of 2-Cl—C.OXT-A in the lumen formation media were 0.1, 1, 10, 50, 100, 500 μmol/l, 1 and 5 mmol/1.
Using each of the lumen formation media, the human umbilical vein endothelial cells (HUVEC) and the normal human dermal fibroblasts were cultured for 10 days. After the culture, the human umbilical vein endothelial cells (HUVEC) were immunostained using a lumen staining kit (for CD31 staining, Kurabo). Then, using NIH Image (image processing and analysis software), the area of a portion stained by the immunostaining (lumen area) was measured. As a control, a medium provided in the kit was used instead of the lumen formation medium to carry out the culture, and the cells were immunostained and the lumen area was measured in the same manner as in the above. Then, using the following equation (II), the relative value of lumen area in the culture using each of the lumen formation media containing 2-Cl—C.OXT-A at the predetermined concentrations was calculated.
In the present example, the relative value of lumen area was calculated in the same manner as in the lumen formation measurement in Example 1, except that the measurement was carried out with respect to four groups respectively using media Nos. 5 to 8 prepared by adding 2-Cl—C.OXT-A and PD98059 to media provided in the above-described angiogenesis kits (Kurabo) so that their concentrations became as shown in Table 2 below. In the group using the medium No. 7, the culture was conducted using the medium No. 7 from the first to third days of the culture and the medium No. 5 from the fourth to tenth days of the culture, and in the group using the medium No. 8, the culture was conducted using the medium No. 8 from the first to third days of the culture and the medium No. 6 from the fourth to tenth days of the culture.
In the present example, the relative value of lumen area was calculated in the same manner as in the lumen formation measurement in Example 1, except that the measurement was carried out with respect to six groups respectively using media Nos. 15 to 20 prepared by adding 2-Cl—C.OXT-A, VEGF (positive control), and SU5416 to media provided in the above-described angiogenesis kit (Kurabo) so that their concentrations became as shown in Table 4 below. In the group using the medium No. 16, the culture was conducted using the medium No. 16 from the first to third days of the culture and the medium No. 15 from the fourth to tenth days of the culture; in the group using the medium No. 18, the culture was conducted using the medium No. 18 from the first to third days of the culture and the medium No. 17 from the fourth to tenth days of the culture; and in the group using the medium No. 20, the culture was conducted using the medium No. 20 from the first to third days of the culture and the medium No. 19 from the fourth to tenth days of the culture.

[3] = system: Human umbilical vein endothelial cells (HUVEC); experiment: Measurement of cell migration (CytoSelect 24-well Cell Migration Assay); format: cell-based; conditions: examined in the same manner as in Example 1
Method: Measurement of cell migration was carried out in the following manner using CytoSelect 24-well Cell Migration Assay (CBA-100, Cell Biolabs) kits. First, sample solutions were prepared by dissolving 2-Cl—C.OXT-A in physiological saline so as to achieve predetermined concentrations (0.1, 0.5, 1 mmol/l). Then, the sample solutions containing 2-Cl—C.OXT-A at the predetermined concentrations respectively were added to HuMedia-EB2 media (Kurabo) to which 2 v/v % inactivated fetal bovine serum (FBS) had been added so that their concentrations became 10 v/v %. Thus, cell migration media were prepared. The final concentrations of 2-Cl—C.OXT-A in the cell migration media were 10, 50, and 100 μmol/l.
Human umbilical vein endothelial cells (HUVEC) were suspended in a HuMedia-EB2 medium (Kurabo) to which 2 v/v % inactivated fetal bovine serum (FBS) had been added at a density of 0.5×10^6 cells/ml. Thus, a cell suspension was prepared. 300 μl of the cell suspension was added to an upper compartment (i.e., in an insert) of a polycarbonate membrane plate provided in the kit, and 500 μl of the cell migration medium was added to a lower compartment (i.e., in a well) of the plate. Then, the cells were cultured at 37° C. for 24 hours. After the completion of the culture, the membrane on the inner bottom face of the insert was wiped out with a cotton swab to remove the cells on the membrane. Then, cells having migrated to the rear face of the membrane (the membrane on the outer bottom face of the insert) were stained using a staining solution provided in the kit, and then photographed from below the insert. After the photographing, the dye was extracted with an extracting solution provided in the kit, and the absorbance at 560 nm was measured using a microplate reader. As a control, a HuMedia-EB2 medium (Kurabo) to which 2 v/v % inactivated fetal bovine serum (FBS) had been added was used instead of the cell migration medium to carry out the culture, and the cells were stained and the absorbance was measured in the same manner as in the above. Then, using the above equation (I), the relative absorbance in the culture using each of the cell migration media containing 2-Cl—C.OXT-A at the predetermined concentrations was calculated.

ERK = ERK activation (phosphorylation) immunoblot in HUVEC; format: cell-based, human
Method: First, to a HuMedia-EB2 medium (Kurabo) to which 2 v/v % inactivated fetal bovine serum (FBS) had been added, 2-Cl—C.OXT-A was added so that its concentration became 100 μmol/l. Thus, a medium was prepared. Using the medium, human umbilical vein endothelial cells (HUVEC) were cultured for predetermined periods (0, 10, 20, 30, 45, and 60 minutes).
After the culture, cells were collected. The collected cells were lysed by adding a cell lysis buffer (SDS-lysis buffer) thereto, and heat-denatured at 95° C. for 5 minutes. The solubilized protein in an amount corresponding to 5 v/v % of the heat-denatured cell lysate was subjected to electrophoresis using 10% SDS-polyacrylamide gel, whereby the solubilized protein was transferred onto a nitrocellulose membrane (Amersham Biosciences). To 20 ml of TBS-T having the following composition, skim milk (Wako) was added so that its concentration became 5%, thus preparing a blocking solution. The resultant nitrocellulose membrane was immersed in the blocking solution and shaken at room temperature for 1 hour.
(§1) Primary antibodies shown below were diluted 1000-fold by adding them to 5% bovine serum albumin (Sigma)-containing TBS-T, thus preparing a primary antibody solution. The nitrocellulose membrane after being subjected to the blocking was immersed in the primary antibody solution, and shaken at room temperature for 1 hour. The resultant nitrocellulose membrane was immersed in the TBS-T and washed by being shaken for 10 minutes. This washing operation was carried out three times in total.
as §1, with “Secondary” for “Primary”, “20000-fold” for “1000-fold”, “to” for “to 5% bovine serum albumin (Sigma)-containing”, “secondary” for “primary”, “having undergone” for “after being subjected to”, “reaction with the primary antibodies” for “blocking”
The enzymes were visualized with SuperSignal (registered trademark) West Pico Chemiluminescent Substrate (Pierce), and detected by being exposed to RX—U X-ray film (FUJIFILM Corporation). From the detected bands, the respective phosphoenzymes and total enzymes were quantified using an NIH image software. Furthermore, the relative value (−fold) of each phosphoenzyme was calculated by substituting the measured value of the phosphoenzyme into the following equation (III).
Relative value(−fold)of phosphoenzyme=(B/D)/(A/C) (III)
In the present example, the effect of 2-Cl—C.OXT-A of Example 1 and C.OXT-G of Comparative Example 2 on the activation (phosphorylation) of ERK was examined. In the present example, the amount of each enzyme was measured and the relative value (−fold) of each phosphoenzyme was calculated in the same manner as in Example 3, except that: a medium to which 2-Cl—C.OXT-A had been added so as to achieve predetermined concentrations (0, 10 and 100 μmol/l) and a medium to which 100 μmol/l C.OXT-G had been added were used; the culture period after the addition was set to 20 minutes: as the primary antibodies, only an anti-phospho ERK polyclonal antibody (Catalog No. 9101, Cell Signaling Technology) and an anti-total ERK monoclonal antibody (Catalog No. 610408, BD Transduction Laboratory) were used; as the secondary antibody for ERK, a sheep HRP-labeled anti-mouse IgG antibody (Pierce) was used; and as a secondary antibody of pERK, a sheep HRP-labeled anti-rabbit IgG antibody (Pierce) was used.
In the present example, the effect of PD98059 as an MEK inhibitor on the ERK activation (phosphorylation) by 2-Cl—C.OXT-A used in Example 1 was examined. […]

Row | Structure (SMILES) | cell proliferation promoting-activity for vascular endothelial cells [1] | lumen formation promoting-activity for vascular endothelial cells [2] | cell migration promoting-activity for vascular endothelial cells [3] | amount of pERK (ERK; Example 4, 100 μmol/l C.OXT-G, 20 minutes) | relative value of lumen area compared with control ([2]; Example 7, medium No. 8: 2-Cl—C.OXT-A 10 μmol/l + PD98059 10 nmol/l (first to third days)) | increase in pERK (ERK; Example 6, medium No. 3: only PD98059 100 nmol/l) | ERK activation by 2-Cl—C.OXT-A in the presence of PD98059 (ERK; Example 6, medium No. 4: 2-Cl—C.OXT-A 100 μmol/l + PD98059 100 nmol/l)
1 | CC(=O)OCC1CC(n2c(Br)nc3c(=O)[nH]c(N)nc32)C1COC(C)=O (stereo not drawn) [chemical formula (18), 8-bromo-9-[trans-trans-2,3-bis(acetyloxymethyl)cyclobutyl]guanine] | exhibited | exhibited | exhibited |  |  |  | 
2 | CC(=O)OCC1CC(n2cnc3c(=O)[nH]c(N)nc32)C1COC(C)=O (stereo not drawn) [chemical formula (17), 9-[trans-trans-2,3-bis(acetyloxymethyl)cyclobutyl]guanine] | exhibited | exhibited | exhibited |  |  |  | 
3 | COc1nc(N)nc2c1nc(OC)n2C1CC(CO)C1CO (stereo not drawn) [chemical formula (21), 2-amino-6,8-dimethoxy-9-[trans-trans-2,3-bis(hydroxymethyl)cyclobutyl]purine] | exhibited | exhibited | exhibited |  |  |  | 
4 | Nc1nc2c(ncn2C2CC(CO)C2CO)c(=O)[nH]1 (stereo not drawn) [C.OXT-G, 2-amino-9-[trans-trans-2,3-bis(hydroxymethyl)cyclobutyl]-3H-purine-6-one, reference compound] |  |  |  | not increased |  |  | 
5 | Nc1nc2c(nc(Br)n2C2CC(CO)C2CO)c(=O)[nH]1 (stereo not drawn) [chemical formula (19), 8-bromo-9-[trans-trans-2,3-bis(hydroxymethyl)cyclobutyl]guanine] | exhibited | exhibited | exhibited |  |  |  | 
6 | COc1cccc(-c2cc(=O)c3ccccc3o2)c1N [PD98059, reference compound] |  |  |  |  | about 1 fold | not observed | inhibited
7 | CC(=O)OCC1CC(n2c(Cl)nc3c(Cl)nc(N)nc32)C1COC(C)=O (stereo not drawn) [chemical formula (20), 2-amino-6,8-dichloro-9-[trans-trans-2,3-bis(acetyloxymethyl)cyclobutyl]purine] | exhibited | exhibited | exhibited |  |  |  | 
